Patent US20090047742A1 (priority 2005, published 2009)

How the values were obtained:
T-Rex-293 cells = test: FACS analysis of propidium iodide labeling (sub-G1 peak); assay type: cell-based, human; conditions: T-Rex-293 (mazF/pcDNA3), 72 hours of Tet induction
Description: T-Rex-293 (mazF/pcDNA3) cells and T-Rex-293 (mazF/mazE) cells treated with tetracycline for 0, 24, 48 and 72 hr were harvested by trypsinization, pelleted by centrifugation and resuspended in PBS. The cells were fixed with ice-cold 70% ethanol for 30 min and stained with propidium iodide (10 μg/ml) and RNase A (100 μg/ml) overnight. The cells were analyzed on a Becton Dickinson FACSCalibur system (San Jose, Calif.).

BCL-2 family proteins = test: Western blot of BCL-2 family proteins in T-Rex-293 lysates; assay type: cell-based, human
Description: Western blot analysis and immunofluorescence were performed as previously described (Perez, D., and White, E. J. Cell Biol. 141: 1255-1266 (1998); Perez, D., and White, E. Mol. Cell 6: 53-63 (2000)). The term “Western blot” refers to a method for identifying proteins in a complex mixture; proteins are separated electrophoretically in a gel medium; transferred from the gel to a protein binding sheet or membrane; and the sheet or membrane containing the separated proteins exposed to specific antibodies which bind to, locate, and enable visualization of protein(s) of interest. T-Rex-293 (mazF/pcDNA3) and T-Rex-293 (mazF/mazE) cells were harvested at 0, 24, 48 and 72 hr post-treatment with tetracycline or staurosporine by scraping and centrifugation. All cell pellets were lysed in 2× Laemmli buffer. Cell lysates were subjected to electrophoresis on a 15% SDS-PAGE gel and then transferred onto an Immobilon-P membrane (Millipore, Bedford, Mass.). […]

[1] = tested on: 28S and 18S ribosomal RNA; test: ribosomal RNA by agarose-formaldehyde gel electrophoresis and ethidium bromide staining; assay type: cell-based, human; conditions: MazF expressed for 72 hours, T-Rex-293 cells
Description: Total RNA from Tet-treated or -untreated T-Rex-293 cells at the indicated time points was probed with ^32P-labeled human GAPDH and β-actin cDNA. 28S and 18S ribosomal RNAs were visualized by agarose-formaldehyde gel electrophoresis followed by ethidium bromide staining. […] Human GAPDH and β-actin mRNA levels were quantified by real-time RT-PCR. Relative amounts of mRNA were calculated from the fluorescence signal in the 24-, 48- and 72-hours samples as compared with the corresponding 0-hour sample.

[2] = tested on: human GAPDH and β-actin mRNA; test: real-time RT-PCR quantification of mRNA levels in T-Rex-293 cells; assay type: cell-based; conditions: MazF induction for 72 hours, T-Rex-293 cells
Description: Northern blot analysis and real-time PCR (RT-PCR) was preformed as previously described (Zhang, Y., et al., Mol. Cell 12: 913-923 (2003); Cuconati, A., et al., Genes Dev. 17: 2922-2932 (2003)). Total RNA from tetracycline-treated (0, 24, 48 and 72 hr) or untreated (0, 24, 48 and 72 hr) T-Rex-293 (mazF/pcDNA3) and T-Rex-293 (mazF/mazE) cells for were isolated through the use of Trizol Reagent (Gibco, Carlsbad, Calif.). For Northern blot analysis, 10 μg of total RNA from each condition was subjected to formaldehyde-agarose gel electrophoresis followed by transfer onto GeneScreen Plus membrane (NEN Life Science Products, Boston, Mass.). The blot was hybridized with ^32P-labeled human GAPDH or β-actin cDNA. One hundred ng of total RNA was subjected to real time RT-PCR with the Taqman EZ-RT PCR kit (PE Applied Biosystems, Lincoln Centre Drive Foster City, Calif.) using recommended conditions provided by the vendor. […] Reactions were carried out in triplicate and the relative amount of human GAPDH and β-actin mRNA was calculated from the difference in fluorescence signal in the 24-, 48- and 72-hr samples compared with the corresponding 0 hr sample.

[3] = tested on: activated caspase-3 in iBMK cells; test: immunofluorescence of activated caspase-3 in iBMK cells; assay type: cell-based, mouse
Description: W2, D3, X2 and K1 cells co-transfected by electroporation with a combination of plasmids pcDNA6/His/lacZ with pcDNA4/TO/mazF or pcDNA3 were grown on glass coverslips for 24 hr and fixed in 100% methanol for 10 min at −20° C. After blocking in 1% BSA-PBS for 1 hr at 37° C., cells on coverslips were incubated with anti-active caspase-3 rabbit polyclonal antibody and anti-Xpress mouse monoclonal antibody (Invitrogen, Carlsbad, Calif.) for 1 hr at 37° C. followed by incubation with rhodamine-conjugated anti-rabbit IgG and FITC-conjugated anti-mouse IgG antibody for 1 hr at 37° C. Staining was visualized by a Nikon FXA microscope equipped with epifluorescence optics (Nikon Inc., Garden City, N.Y.). The percentage of cells positive for active caspase-3 was determined by scoring 50-100 cells on each coverslip.

## MazF: E. coli toxin; sequence specific endoribonuclease (mRNA interferase) cleaving single-stranded RNAs at ACA sequences; expressed from plasmid pcDNA4/TO/mazF
T-Rex-293 cells
  sub-G1 peak: 65.9%
BCL-2 family proteins; T-Rex-293, MazF induction 0-72 hours
  levels of BCL-2 family proteins (Western blot): remained unchanged
BCL-2 family proteins; T-Rex-293, during MazF-induced apoptosis
  truncated BID (tBID) (Western blot): undetectable
[1]
  levels of 28S and 18S ribosomal RNA: did not change
[2]
  decrease of both GAPDH and β-actin mRNAs (real-time RT-PCR): > 90%
[3]; D3 and K1 cells transiently expressing MazF
  cells with activated caspase-3: < 0.1%
[3]; W2 cells transiently expressing MazF
  active-caspase-3 positive cells: 58.1%
[3]; X2 cells transiently expressing MazF
  active-caspase-3 positive cells: 47.2%
